Like-named read-outs stand apart in the source and are kept apart here.

Series [1] is described as follows: In vitro dissolution, USP apparatus 2 (paddle). The format is physicochemical. The conditions noted are these: at first 30 minutes; FIGS. 4-6. As for the experimental part:
In the dissolution testing guideline for immediate release profiles, material dissolves over a period of time, and its dissolution is measured at given intervals during this period. A minimum of three time points is recommended and generally cover early, middle and late stages of the dissolution profile. […] In presence of minor changes to the drug dosage forms, a single point dissolution test may be adequate to ensure product dosing compliance. For major changes, a dissolution profile comparison performed under identical conditions for the product before and after the changes(s) is recommended. […] The term “similarity factor” or F2 factor as used herein refers to one way of comparing dissolution profiles of two different products. (Multisource Pharmaceutical Products: Guidelines on Registration Requirements to establish Interchangeability, Quality Assurance and Safety: Medicines, Essential Drugs and Medicines Policy, World Health Organization, 1211 Geneva 27, Switzerland). This model independent mathematical approach compares the dissolution profile of the two products: test and reference (or two strengths, or pre- and post-approved products from the same manufacturer) and calculates percent (%) difference between two curves at each time point and measures the relative error between two curves. Tests are recommended to be performed under the same test conditions. […]

In another series the test system is plasma proteins. As to the kind of experiment: Vilazodone protein binding by equilibrium dialysis (Studies 1 and 2). The format is in vitro ADME. Particulars: both sexes, human, plasma of study participants, read-out: mean percent free fraction in plasma. (In equilibrium dialysis free small molecules cross a membrane that holds back macromolecules.)
A short description of series [2]: Hepatic impairment studies: safety assessments (AEs, ECG). The format is in vivo, human. The conditions noted are these: for diarrhea, participants: both studies. As for the experimental part: Safety assessments included vital signs, clinical laboratory evaluations, ECG, and the collection of adverse events (AEs). […] AEs were recorded at all study visits and as they were reported spontaneously by the participants, up to 30 days after the vilazodone dose. Participants were asked about their well-being at each visit.
Safety assessments were summarized without statistical comparisons. The last assessment made before the first dose of study drug was used as a baseline for all subsequent analyses.

The nature of a further series: clinical. Also noted: species or system human. Particulars: both sexes, human, in vivo, Mean trough plasma concentration. As for the experimental part: An open-label, multiple-dose, single-sequence study to evaluate the effect of steady-state carbamazepine XR, 400 mg once daily, a CYP3A4 substrate and inducer, on the pharmacokinetics of steady-state vilazodone 40 mg tablets once daily, with hardness of more than 10 kp and less than 14 kp, preferably about 12 kp as shown in Table 3 (No Tablet Breakage). Vilazodone was co-administered with carbamazepine XR (extended release formulation). Carbamazepine is an antiepileptic drug approved for the treatment of psychomotor and grand mal seizures is metabolized by CYP3A4, and is a CYP3A4 inducer.
All subjects were healthy, nonsmoking male or female volunteers who were 18-45 (Study 2) years of age. Inclusion and exclusion criteria were typical of the criteria used in pharmacokinetic studies in healthy volunteers as known in the art. Inclusion criteria used included agreement to use an effective measure of contraception, body mass index (BMI)>18 and ≦30 kg/m^2 (BMI=18 allowed), normal or clinically non-significant results on physical examination, medical history, serum chemistry, hematology, and urinalysis; negative hepatitis B antigen and C antibody tests, and negative HIV test at screening. Exclusion criteria included clinically significant electrocardiogram results or QT prolongation, clinically significant disease state, history of alcohol abuse, ingestion of food, drink, or drug that may interfere with CYP enzyme activity (e.g., cruciferous vegetables, caffeine, alcohol), known sensitivity to study drug or other drugs from the same class, and use of prohibited concomitant prescription or over-the counter medications.
All volunteers received 4 treatments (A, B, C, and D) in the same, fixed sequence: Treatment A consisted of vilazodone alone on Days 1-9 and was followed by a 14-day washout, Treatment B was carbamazepine XR alone for 19 days (Days 24-42), Treatment C was vilazodone plus carbamazepine XR for 9 days (Days 43-51), and Treatment D was carbamazepine alone for 3 days (Days 52-54). Once-daily doses of study drug were administered in the morning after breakfast; twice-daily doses were administered in the morning after breakfast and 12 hours later in the evening after dinner Study drug was administered within 30 minutes after the end of the corresponding meal.
Blood samples to determine plasma concentrations of vilazodone, M17 (the metabolite of vilazodone), carbamazepine, and carbamazepine-10,11-epoxide (one of the pharmacologically active metabolites of carbamazepine) were collected into tubes pretreated with K2EDTA. For vilazodone and M17 analyses, blood samples (approximately 6 mL) were collected at pre-dose on Days 1, 7, 8, 49, and 50. […] For the analyses of carbamazepine and carbamazepine-10,11-epoxide, blood samples were collected at pre-dose on Days 24, 40, 41, 49 and 50.
Blood samples were centrifuged at no less than 2500 g for 10 minutes at 4° C. within 30 minutes of the sample draw. Plasma was harvested and transferred to polypropylene tubes and flash frozen in a dry ice bath with isopropyl alcohol or methanol. Samples for vilazodone analyses were stored at approximately −70° C. and analyzed. Samples for carbamazepine analyses were stored at −20° C. and analyzed.
Plasma samples were analyzed for vilazodone, M17, carbamazepine and/or carbamazepine-10,11-epoxide concentrations using liquid chromatography coupled with tandem mass spectrometry (LC/MS/MS). For vilazodone and M17, analytes of interest were detected by electrospray ionization mass spectrometry in the negative ion multiple reaction monitoring mode. The assay was linear in the concentration range of 0.5 to 250 ng/mL for vilazodone and 0.25 to 125 ng/mL for M17.
Based on 50 ìL of human plasma with K2EDTA as the anticoagulant, the lower limit of quantification (LLOQ) was 0.5 ng/mL for vilazodone and 0.25 ng/mL for M17. […]

Series [3] addresses norepinephrine reuptake site (Homo sapiens, UniProt P23975). Particulars: cited from earlier work.
Another series concerns the target dopamine reuptake site (Homo sapiens, UniProt Q01959). The conditions noted are these: cited from earlier work.
A further series has as its target CYP3A4 (Homo sapiens, UniProt P08684). The conditions noted are these: in vitro studies; cited from earlier work.
The mark [4] stands for this setting: group with severe hepatic impairment.
Where [5] appears, read: matched controls, 20 mg single dose.

Chain of dopamine reuptake site (Q01959 whole entry): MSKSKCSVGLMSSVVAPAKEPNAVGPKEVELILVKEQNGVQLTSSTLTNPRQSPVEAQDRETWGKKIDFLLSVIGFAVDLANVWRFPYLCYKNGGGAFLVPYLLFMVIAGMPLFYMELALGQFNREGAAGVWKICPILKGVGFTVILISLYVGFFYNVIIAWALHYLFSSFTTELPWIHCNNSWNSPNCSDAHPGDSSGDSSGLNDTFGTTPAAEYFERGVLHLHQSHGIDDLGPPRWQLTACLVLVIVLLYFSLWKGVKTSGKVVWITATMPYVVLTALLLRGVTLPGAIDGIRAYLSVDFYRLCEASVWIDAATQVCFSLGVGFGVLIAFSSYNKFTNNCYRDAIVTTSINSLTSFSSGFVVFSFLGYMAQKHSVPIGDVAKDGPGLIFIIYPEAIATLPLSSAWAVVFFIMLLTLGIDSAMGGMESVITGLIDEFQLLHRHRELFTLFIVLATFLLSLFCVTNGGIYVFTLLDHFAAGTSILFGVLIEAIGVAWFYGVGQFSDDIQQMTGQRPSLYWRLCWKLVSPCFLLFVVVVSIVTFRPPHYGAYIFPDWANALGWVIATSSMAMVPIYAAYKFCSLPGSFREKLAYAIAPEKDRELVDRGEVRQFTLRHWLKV
Chain of CYP3A4 (P08684 whole entry): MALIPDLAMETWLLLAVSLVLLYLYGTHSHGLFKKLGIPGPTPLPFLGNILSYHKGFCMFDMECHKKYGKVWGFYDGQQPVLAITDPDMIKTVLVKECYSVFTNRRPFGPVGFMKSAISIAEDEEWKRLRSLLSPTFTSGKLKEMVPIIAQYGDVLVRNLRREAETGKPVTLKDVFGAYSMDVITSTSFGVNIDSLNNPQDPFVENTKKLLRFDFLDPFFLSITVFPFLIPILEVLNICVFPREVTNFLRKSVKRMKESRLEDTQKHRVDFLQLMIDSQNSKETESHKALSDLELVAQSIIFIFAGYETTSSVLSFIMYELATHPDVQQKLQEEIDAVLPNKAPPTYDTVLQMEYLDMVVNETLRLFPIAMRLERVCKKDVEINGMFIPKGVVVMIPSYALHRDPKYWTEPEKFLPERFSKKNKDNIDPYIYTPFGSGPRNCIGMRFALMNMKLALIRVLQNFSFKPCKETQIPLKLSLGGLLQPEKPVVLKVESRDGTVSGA
Chain of norepinephrine reuptake site (P23975 whole entry): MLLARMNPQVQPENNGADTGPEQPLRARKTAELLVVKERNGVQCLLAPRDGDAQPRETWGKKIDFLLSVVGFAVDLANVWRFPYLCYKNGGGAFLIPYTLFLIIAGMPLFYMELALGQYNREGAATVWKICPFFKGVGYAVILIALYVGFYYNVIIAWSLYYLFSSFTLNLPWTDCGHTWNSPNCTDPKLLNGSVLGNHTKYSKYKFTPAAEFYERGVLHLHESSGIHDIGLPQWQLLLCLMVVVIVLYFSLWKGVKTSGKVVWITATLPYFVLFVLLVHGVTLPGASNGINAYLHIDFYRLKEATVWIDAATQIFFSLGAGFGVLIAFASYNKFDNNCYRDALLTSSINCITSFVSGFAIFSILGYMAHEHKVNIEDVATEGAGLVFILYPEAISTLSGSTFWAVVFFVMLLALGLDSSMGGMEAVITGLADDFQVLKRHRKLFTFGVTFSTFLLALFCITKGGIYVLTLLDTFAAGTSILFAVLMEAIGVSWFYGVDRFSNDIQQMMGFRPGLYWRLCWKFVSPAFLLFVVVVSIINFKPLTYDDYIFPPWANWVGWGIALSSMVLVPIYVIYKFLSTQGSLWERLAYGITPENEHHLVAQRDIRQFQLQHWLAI
Procedure for plasma proteins: In both studies, additional samples (6 mL each) were collected to determine vilazodone protein binding: in Study 1, these samples were collected in duplicate at predose hour 0 and postdose hours 6 and 12; in Study 2, the samples were collected at predose hour 0 and postdose hours 4 and 12, with an additional sample (13 mL) collected at hour 0 for the determination of albumin concentration.
The plasma concentrations of vilazodone (Studies 1 and 2) and its metabolite M17 (Study 2), vilazodone concentrations in urine (Study 1), and protein binding were determined using liquid chromatography with tandem mass spectrometry (LC/MS/MS) methodologies that have been validated for the following ranges: plasma vilazodone, 0.75 to 250 ng/mL (Study 1) and 0.5 to 250 ng/mL (Study 2); plasma M17, 0.25-125 ng/mL; urine vilazodone, 1.0-200 ng/mL; vilazodone protein binding, high range (sample compartment) 2.7-108 ng/mL, low range (buffer compartment) 0.1-5.4 ng/mL. The extent of vilazodone binding to plasma proteins was determined using equilibrium dialysis.

With `Cl.N#Cc1ccc2[nH]cc(CCCCN3CCN(c4ccc5oc(C(N)=O)cc5c4)CC3)c2c1` [Vilazodone, 1-[4-(5-cyanoindol-3-yl)butyl]-4-(2-carbamoyl-benzofuran-5-yl)-piperazine hydrochloride], the “vilazodone HCl released” value in series [1] was 80%. Moreover, the fraction unbound with plasma proteins (all participants with severe hepatic impairment) was 0.0224; in the series on plasma proteins (healthy controls), 0.01 to 0.014; with plasma proteins (participants with mild or moderate hepatic impairment), 0.016; in the series on plasma proteins (participants with severe hepatic impairment who did not vomit), 0.0213. Also, the “decrease in QT interval (mean, screening to end of study)” value in series [2] (setting [4]) turned out to be 14.9 ms. Also, the “increase in QTcB interval (Bazett formula; mean, screening to end of study)” value in series [2] (setting [4]) stood at 8.7 ms. The “deaths, serious AEs, discontinuations due to an AE” value in series [2] (hepatic impairment studies, 20 mg single dose) is recorded as “No deaths, serious AEs, or discontinuations due to an AE”. The “diarrhea, participants” value in series [2] (setting [5]) is reported as 5 participants; in series [2] (participants with hepatic impairment, 20 mg single dose) it was 10 participants. For the same compound, the “vomiting, participants” value in series [2] (setting [5]) stood at 0 participants; in series [2] (participants with hepatic impairment (all severe), 20 mg single dose) it was 4 participants. The concentration at 7 day in the series “clinical” is 36 ng/mL. The compound also came in with a concentration at 8 day in the series “clinical” of 45.1 ng/mL. This compound also displayed a concentration at 9 day in the series “clinical” of 45.3 ng/mL. Besides, the “binding to norepinephrine reuptake site” value in series [3] is listed as “not”. For the same compound, the “binding to dopamine reuptake site” value at dopamine reuptake site is reported as “not”. In addition, the “inhibitor or inducer of CYP3A4” value at CYP3A4 is listed as “not an inhibitor or inducer”.
